As a reminder, the IC50 is the concentration that gives 50% inhibition.

For four compounds, IC50 results are on record in publication PMC8427641 (ACS Omega, 2021).

This experiment concerns the target T1, α-amylase (Homo sapiens, UniProt P04746).
T1 sequence (P04746 16-511): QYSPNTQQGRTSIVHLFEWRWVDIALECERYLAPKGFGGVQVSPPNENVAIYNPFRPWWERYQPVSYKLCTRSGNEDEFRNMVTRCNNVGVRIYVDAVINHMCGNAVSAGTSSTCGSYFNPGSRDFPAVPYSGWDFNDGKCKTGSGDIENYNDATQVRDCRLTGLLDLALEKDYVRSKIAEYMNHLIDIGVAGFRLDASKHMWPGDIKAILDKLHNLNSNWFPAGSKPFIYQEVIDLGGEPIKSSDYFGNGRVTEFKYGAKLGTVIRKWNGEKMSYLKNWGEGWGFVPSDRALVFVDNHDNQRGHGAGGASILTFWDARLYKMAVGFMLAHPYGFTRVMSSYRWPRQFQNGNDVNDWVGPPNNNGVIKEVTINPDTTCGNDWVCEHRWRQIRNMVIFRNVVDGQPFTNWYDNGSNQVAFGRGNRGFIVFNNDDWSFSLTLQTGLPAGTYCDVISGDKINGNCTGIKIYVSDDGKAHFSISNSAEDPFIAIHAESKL
In words: α-Amylase inhibition assay. The experiment is classed as biochemical.
`COc1cc(-c2nc3cc(Cl)ccc3[nH]2)ccc1OCc1ccccc1` [Compound 24, 5-Chloro-2-(4^′-(benzyloxy)-3^′-methoxyphenyl)-1H-benzo[d]imidazole] came in with a 50% inhibitory concentration (IC50) of 2160 ± 20 nM. The value for `Clc1ccc2[nH]c(-c3cccc(OCc4ccccc4)c3)nc2c1` [Compound 29, 5-Chloro-2-(3^′-(benzyloxy)phenyl)-1H-benzo[d]imidazole] was 2470 ± 110 nM; that for `Cc1cc2nc(-c3ccc(OCc4ccccc4)cc3)[nH]c2cc1C` [Compound 30, 5,6-Dimethyl-2-(4^′-(benzyloxy)phenyl)-1H-benzo[d]imidazole] was 2160 ± 70 nM; that for `Fc1ccc2[nH]c(-c3ccc(OCc4ccccc4)cc3)nc2c1` [Compound 31, 5-Fluoro-2-(4^′-(benzyloxy)phenyl)-1H-benzo[d]imidazole] was 2150 ± 60 nM.
